# Test results from article PMC8296573, “Synthesis and Biological Evaluation of Fingolimod Derivatives as Antibacterial Agents” (ACS Omega, 2021).
# Like-named read-outs stand apart in the source and are kept apart here.
# Assays:
# [1] = Cytotoxicity, resazurin staining assay; type: cell-based, human; conditions: human, 24 h incubation
# Description: The cytotoxicity of the compounds was assessed on the three different human cell lines, A549, HEp-2, and HL-60, using the redox-based resazurin staining assay. The cells were seeded in clear 96-well plates at a density of 1 × 10^4 cells per well in a volume of 200 μL per well. The adherent cells were let to attach for 24 h before changing the media and adding the compounds (final concentration of 0.25% DMSO). HL-60 were counted and added to the plates at a density of 1 × 10^4 cells per well in a volume of 200 μL directly with the compounds. Untreated cells were used as negative controls, and cells treated with 1% TritonX-100 (Sigma-Aldrich, St. Louis, MO) were used as positive controls for cytotoxicity. The cells were incubated with the compounds for 24 h.
# For the resazurin assay, the media was first removed, and the adherent cells were washed once with PBS. Then, 200 μL of 20 μM resazurin was added per well and cells were incubated for two more hours before the measurement of fluorescence, as mentioned earlier. For HL-60, 10 μL of 400 μM resazurin was added directly to the wells and the cells were incubated for an additional 4 h before the measurement of fluorescence.
# [2] = Colloidal aggregation by nephelometry; type: physicochemical; conditions: 25 µM
# Description: 3. Aggregation data (Figure S3)
# Potential colloidal aggregation in biological assays was studied at five concentrations (5 µM, 10 µM, 15 µM,
# 25 µM, 50 µM). The original assay conditions were simulated, and the light scattering of potential aggregates
# in the mixture was studied by nephelometric methods using Nepheloskan Ascent (Labsystems, Finland).
# Aggregation of the blank and compounds fingolimod, 43, 45, 55, 62, 79 and 82 were measured as triplicates
# from one independent experiment at 400 V and at room temperature.
# formation at 50 µM. […] However, at 15
# µM, 10 µM and 5 µM, the obtained values were close to those observed by blank, therefore indicating only
# minor or no detectable aggregation.
# Figure S3: Aggregation data for fingolimod and compounds 43, 45, 55, 62, 79, 82. RNU = relative nephelometric unit.
# The data are shown as the mean ± SD and normalized to the blank.
# (1 picture or pasted object on this page, not shown here)
# S. aureus ATCC 12598 = assay: Antibacterial activity, pre-exposure; type: cell-based, Staphylococcus aureus; conditions: for Average inhibition %, biofilms viability / Average inhibition %, planktonic cells viability / inhibition at 5 µM / inhibition at 10 µM / inhibition at 15 µM / inhibition at 25 µM: S. aureus ATCC 12598, pre-exposure, ± SD; for inhibition at 5 µM / inhibition at 10 µM / inhibition at 15 µM / inhibition at 25 µM / MIC: Staphylococcus aureus, ATCC12598
# Outline: (§1)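 Read-outs were turbidity and resazurin reduction for planktonic cells, and resazurin followed by crystal violet biomass (A595) for biofilms. Compounds were present from inoculation onward, with 18 h aerobic growth at 37 °C under shaking.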
# S. aureus P2 = assay: Antibacterial activity, pre-exposure; type: cell-based, Staphylococcus aureus; conditions: for Average inhibition %, biofilms viability / Average inhibition %, planktonic cells viability / inhibition at 5 µM / inhibition at 10 µM / inhibition at 15 µM / inhibition at 25 µM: S. aureus P2, pre-exposure, ± SD; for MIC / inhibition at 5 µM / inhibition at 10 µM / inhibition at 15 µM / inhibition at 25 µM: Staphylococcus aureus; for MIC: P2, pre-exposure, 18 h
# Outline: as §1
# [3] = 5 µM, read-out: Average inhibition %, biofilms biomass
# [4] = 5 µM, read-out: Average inhibition %, planktonic cells turbidity
# [5] = 10 µM, read-out: Average inhibition %, biofilms biomass
# [6] = 10 µM, read-out: Average inhibition %, planktonic cells turbidity
# [7] = 15 µM, read-out: Average inhibition %, biofilms biomass
# [8] = 15 µM, read-out: Average inhibition %, planktonic cells turbidity
# [9] = 25 µM, read-out: Average inhibition %, biofilms biomass
# [10] = 25 µM, read-out: Average inhibition %, planktonic cells turbidity
# [11] = pre-exposure, 18 h, read-out: MIC S. aureus ATCC 12598
smiles,measurement,setting,value
"CCCCCCCCc1ccc2cc(CC(N)(CO)CO)ccc2c1 [Compound 79, 2-Amino-2-[(6-octylnaphthalen-2-yl)methyl]propane-1,3-diol]",CC50 at 24 h,[1]; A549 cells,> 40 µM
same,CC50 at 24 h,[1]; HEp-2 cells,> 40 µM
same,CC50 at 24 h,[1]; HL-60 cells,26.9 ± 1.6 µM
same,Aggregation (nephelometry),[2],potential aggregation
same,"Average inhibition %, biofilms viability",S. aureus ATCC 12598; 5 µM,65.9 ± 50.1%
same,"Average inhibition %, planktonic cells viability",S. aureus ATCC 12598; 5 µM,69.3 ± 47.1%
same,"Average inhibition %, biofilms viability",S. aureus ATCC 12598; 10 µM,99.6 ± 0.1%
same,"Average inhibition %, planktonic cells viability",S. aureus ATCC 12598; 10 µM,99.8 ± 0.1%
same,"Average inhibition %, biofilms viability",S. aureus ATCC 12598; 15 µM,99.5 ± 0%
same,"Average inhibition %, planktonic cells viability",S. aureus ATCC 12598; 15 µM,99.6 ± 0.1%
same,"Average inhibition %, biofilms viability",S. aureus ATCC 12598; 25 µM,99.5 ± 0.1%
same,"Average inhibition %, planktonic cells viability",S. aureus ATCC 12598; 25 µM,99.6 ± 0.1%
same,inhibition at 5 µM,S. aureus ATCC 12598; [3],63.5 ± 41.5%
same,inhibition at 5 µM,S. aureus ATCC 12598; [4],82.3 ± 26.8%
same,inhibition at 10 µM,S. aureus ATCC 12598; [5],94.7 ± 0.2%
same,inhibition at 10 µM,S. aureus ATCC 12598; [6],99.6%
same,inhibition at 15 µM,S. aureus ATCC 12598; [7],94.6 ± 0.6%
same,inhibition at 15 µM,S. aureus ATCC 12598; [8],99.4 ± 0.1%
same,inhibition at 25 µM,S. aureus ATCC 12598; [9],95 ± 1%
same,inhibition at 25 µM,S. aureus ATCC 12598; [10],99.2 ± 0.3%
same,MIC,"S. aureus ATCC 12598; S. aureus ATCC 12598 and P2, read-out: MIC against the clinical strains of S. aureus",5 to 10 µM
same,MIC,S. aureus ATCC 12598; [11],5 to 10 µM
same,"Average inhibition %, biofilms viability",S. aureus P2; 5 µM,49.4 ± 34.5%
same,"Average inhibition %, planktonic cells viability",S. aureus P2; 5 µM,45.3 ± 32.9%
same,"Average inhibition %, biofilms viability",S. aureus P2; 10 µM,99.4 ± 0%
same,"Average inhibition %, planktonic cells viability",S. aureus P2; 10 µM,99.6 ± 0%
same,"Average inhibition %, biofilms viability",S. aureus P2; 15 µM,99.4 ± 0%
same,"Average inhibition %, planktonic cells viability",S. aureus P2; 15 µM,99.6 ± 0.1%
same,"Average inhibition %, biofilms viability",S. aureus P2; 25 µM,99.5 ± 0%
same,"Average inhibition %, planktonic cells viability",S. aureus P2; 25 µM,99.6 ± 0.1%
same,MIC,S. aureus P2,10 µM
same,inhibition at 5 µM,S. aureus P2; [3],63.6 ± 23.6%
same,inhibition at 5 µM,S. aureus P2; [4],45.4 ± 35.4%
same,inhibition at 10 µM,S. aureus P2; [5],95.8 ± 2.2%
same,inhibition at 10 µM,S. aureus P2; [6],99.5%
same,inhibition at 15 µM,S. aureus P2; [7],97.3 ± 0.5%
same,inhibition at 15 µM,S. aureus P2; [8],99.4 ± 0.1%
same,inhibition at 25 µM,S. aureus P2; [9],96.4 ± 1.3%
same,inhibition at 25 µM,S. aureus P2; [10],99.1 ± 0.2%
"CCCCCCCCc1ccc(CCC(N)(CO)CO)cc1 [fingolimod, Fingolimod]",CC50 at 24 h,[1]; A549 cells,> 40 µM
same,CC50 at 24 h,[1]; HEp-2 cells,> 40 µM
same,CC50 at 24 h,[1]; HL-60 cells,36.1 ± 13.4 µM
same,Aggregation (nephelometry),[2],potential aggregation
same,"Average inhibition %, biofilms viability",S. aureus ATCC 12598; 5 µM,16.9 ± 2.9%
same,"Average inhibition %, planktonic cells viability",S. aureus ATCC 12598; 5 µM,2.9 ± 2.9%
same,"Average inhibition %, biofilms viability",S. aureus ATCC 12598; 10 µM,35.8 ± 17.9%
same,"Average inhibition %, planktonic cells viability",S. aureus ATCC 12598; 10 µM,34 ± 29.5%
same,"Average inhibition %, biofilms viability",S. aureus ATCC 12598; 15 µM,99.2 ± 0.5%
same,"Average inhibition %, planktonic cells viability",S. aureus ATCC 12598; 15 µM,99.7 ± 0%
same,"Average inhibition %, biofilms viability",S. aureus ATCC 12598; 25 µM,99.6 ± 0.3%
same,"Average inhibition %, planktonic cells viability",S. aureus ATCC 12598; 25 µM,99.7 ± 0%
same,inhibition at 5 µM,S. aureus ATCC 12598; [3],18.5 ± 17.7%
same,inhibition at 5 µM,S. aureus ATCC 12598; [4],6.3 ± 8.7%
same,inhibition at 10 µM,S. aureus ATCC 12598; [5],43.2 ± 15.8%
same,inhibition at 10 µM,S. aureus ATCC 12598; [6],21.5 ± 27.1%
same,inhibition at 15 µM,S. aureus ATCC 12598; [7],94.5 ± 1.1%
same,inhibition at 15 µM,S. aureus ATCC 12598; [8],99.6 ± 0.1%
same,inhibition at 25 µM,S. aureus ATCC 12598; [9],95.2 ± 0.4%
same,inhibition at 25 µM,S. aureus ATCC 12598; [10],99.2 ± 0.1%
same,MIC,S. aureus ATCC 12598; [11],15 µM
same,"Average inhibition %, biofilms viability",S. aureus P2; 5 µM,18.2 ± 17%
same,"Average inhibition %, planktonic cells viability",S. aureus P2; 5 µM,4.3 ± 7.4%
same,"Average inhibition %, biofilms viability",S. aureus P2; 10 µM,55.4 ± 38%
same,"Average inhibition %, planktonic cells viability",S. aureus P2; 10 µM,45 ± 45.6%
same,"Average inhibition %, biofilms viability",S. aureus P2; 15 µM,99.8 ± 0%
same,"Average inhibition %, planktonic cells viability",S. aureus P2; 15 µM,99.8 ± 0%
same,"Average inhibition %, biofilms viability",S. aureus P2; 25 µM,99.8 ± 0.1%
same,"Average inhibition %, planktonic cells viability",S. aureus P2; 25 µM,99.7 ± 0%
same,MIC,S. aureus P2,15 µM
same,inhibition at 5 µM,S. aureus P2; [3],34.9 ± 19%
same,inhibition at 5 µM,S. aureus P2; [4],3.3 ± 5.8%
same,inhibition at 10 µM,S. aureus P2; [5],64.3 ± 29.1%
same,inhibition at 10 µM,S. aureus P2; [6],39.5 ± 45.1%
same,inhibition at 15 µM,S. aureus P2; [7],98.3 ± 0.1%
same,inhibition at 15 µM,S. aureus P2; [8],99.6%
same,inhibition at 25 µM,S. aureus P2; [9],98 ± 0.4%
same,inhibition at 25 µM,S. aureus P2; [10],99.3 ± 0.1%
